Reference: patent US20250230193A1, “CYCLIC COMPOUND HAVING SELECTIVE KRAS INHIBITORY EFFECT ON HRAS AND NRAS” (CHUGAI SEIYAKU KABUSHIKI KAISHA, priority 2022, published 2025)
Read-outs that look alike come from different tables or passages of the source. *1 amine or outer side, *2 acyl side, *3 side chain or, on linkers, in order; H or OH if unused. Where a SMILES comes first, the peptide text is derived from it. Bridges are numbered along the chain shown (N, C = ends). [ ]: non-standard residue; d: D form. The star is where a group is joined. dhPhe(3-Cl,4-CF3) = N[C@H](CCc1ccc(C(F)(F)F)c(Cl)c1)C(=O)O; hPhe(3-Cl-4-CF3) = N[C@@H](CCc1ccc(C(F)(F)F)c(Cl)c1)C(=O)O; X3 = C=CCN([C@H](Cc1ccccc1)C(=O)[*:2])[*:1]; X5 = CCCN([C@H](C(=O)[*:2])C1CCCC1)[*:1]; NMeGly(cPent) = CN[C@H](C(=O)O)C1CCCC1; NMeNle(5-ene) = C=CCC[C@H](NC)C(=O)O; NMeD = CN[C@@H](CC(=O)O)C(=O)O; NMeL = CN[C@@H](CC(C)C)C(=O)O; Morpholide = C1CN(*)CCO1; NMeA = CN[C@@H](C)C(=O)O; Ac5c = NC1(C(=O)O)CCCC1; Aze = O=C(O)[C@@H]1CCN1; Sar = CNCC(=O)O

How the values were obtained:
[1] = target: GDP-bound NRAS wild-type protein (Homo sapiens, UniProt P01111); test: Binding to NRAS by surface plasmon resonance (SPR), Single Cycle Kinetics; conditions: SPR; for NRAS/KRAS (ratio of KD value for NRAS to KD value for KRAS): GDP-bound NRAS wild-type vs GDP-bound KRAS wild-type
[2] = target: GDP-bound HRAS wild-type protein (Homo sapiens, UniProt P01112); test: Binding to HRAS by surface plasmon resonance (SPR), Single Cycle Kinetics; conditions: SPR; for HRAS/KRAS (ratio of KD value for HRAS to KD value for KRAS): GDP-bound HRAS wild-type vs GDP-bound KRAS wild-type
[3] = test system: human lung cancer strain NCI-H441

GDP-bound HRAS wild-type protein, sequence (P01112 whole entry): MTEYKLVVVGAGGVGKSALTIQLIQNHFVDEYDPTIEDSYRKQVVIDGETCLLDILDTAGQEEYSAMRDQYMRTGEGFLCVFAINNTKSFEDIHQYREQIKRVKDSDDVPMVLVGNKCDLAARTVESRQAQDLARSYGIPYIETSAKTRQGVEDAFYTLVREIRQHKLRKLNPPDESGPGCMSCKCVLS
GDP-bound NRAS wild-type protein, sequence (P01111 whole entry): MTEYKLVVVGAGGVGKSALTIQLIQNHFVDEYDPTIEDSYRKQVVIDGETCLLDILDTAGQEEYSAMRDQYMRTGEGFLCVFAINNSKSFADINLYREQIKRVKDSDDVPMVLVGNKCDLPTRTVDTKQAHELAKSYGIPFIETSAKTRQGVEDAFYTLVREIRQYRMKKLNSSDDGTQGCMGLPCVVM

IC50 [3] [nM] | Structure (SMILES) | NRAS/KRAS (ratio of KD value for NRAS to KD value for KRAS) [1] | HRAS/KRAS (ratio of KD value for HRAS to KD value for KRAS) [2] | also measured
24.8 | CC[C@H](C)[C@@H]1NC(=O)[C@H](CC2CCCC2)N(C)C(=O)C[C@@H](C(=O)N(C)C)N(C)C(=O)[C@H](C2CCCC2)N(C)C(=O)C2(CCC2)NC(=O)[C@@H]2[C@@H](OCC(F)F)CCN2C(=O)[C@H](CCc2cc(F)c(C(F)(F)F)c(F)c2)NC(=O)CN(C)C(=O)[C@H](Cc2ccc(C)cc2)N2CC/C=C\C[C@H](C2=O)N(C)C(=O)CN(C)C1=O [PP1536] |  |  | NRAS/KRAS (ratio of KD value for GDP-bound NRAS wild-type protein to KD value for KRAS) ([1]; KD ratio class): A (a compound having 10 or more and less than 20 is denoted as A); HRAS/KRAS (ratio of KD value for GDP-bound HRAS wild-type protein to KD value for KRAS) ([2]; KD ratio class): B (a compound having 3 or more and less than 10 is denoted as B)
10.1 | CC[C@H](C)[C@@H]1NC(=O)[C@H](CC(C)C)N(C)C(=O)C[C@@H](C(=O)N(C)C)N(C)C(=O)[C@H](C2CCCC2)N(C)C(=O)C2(CC(C)(C)C2)NC(=O)[C@@H]2C[C@@H](C)CN2C(=O)[C@H](CCc2ccc(C(F)(F)F)c(OC)c2)NC(=O)CN(C)C(=O)[C@H](Cc2ccc(C)cc2)N2CC/C=C\C[C@@H](C2=O)N(C)C(=O)CN(C)C1=O [PP1908] | A (a compound having 10 or more and less than 20 is denoted as A) | B (a compound having 3 or more and less than 10 is denoted as B) | 
2800 | C=CCC[C@H]1C(=O)N(CC=C)[C@H](Cc2ccccc2)C(=O)N(C)CC(=O)N[C@H](CCc2ccc(C(F)(F)F)c(Cl)c2)C(=O)N2CCC[C@H]2C(=O)NC2(CCCC2)C(=O)N(C)[C@@H](C2CCCC2)C(=O)N(C)[C@H](C(=O)N2CCOCC2)CC(=O)N(C)[C@@H](CC(C)C)C(=O)N[C@@H]([C@@H](C)CC)C(=O)N(C)CC(=O)N1C [PP0599] ([NMeL]I[Sar][NMeNle(5-ene)][X3][Sar][dhPhe(3-Cl,4-CF3)]P[Ac5c][NMeGly(cPent)][NMeD]-Morpholide; lactam N-11) |  |  | NRAS/KRAS (ratio of KD value with respect to GDP-bound NRAS wild-type protein to KD value with respect to KRAS) ([1]; KD ratio NRAS/KRAS): C (A compound having a KD ratio of 0.1 or more and less than 3 is denoted as C); HRAS/KRAS (ratio of KD value with respect to GDP-bound HRAS wild-type protein to KD value with respect to KRAS) ([2]; KD ratio HRAS/KRAS): B (a compound having 3 or more and less than 10 is denoted as B)

Continued, compound first:

Structure (SMILES) | IC50 [3] [nM] | NRAS/KRAS (ratio of KD value for NRAS to KD value for KRAS) [1] | HRAS/KRAS (ratio of KD value for HRAS to KD value for KRAS) [2] | also measured
CCC[C@H]1C(=O)N[C@@H]([C@@H](C)CC)C(=O)N(C2CC2)CC(=O)N(C)[C@H]2C/C=C\CCN(C2=O)[C@@H](Cc2ccc(C)cc2)C(=O)N(C)CC(=O)N[C@@H](CCc2ccc(C(F)(F)F)c(OC)c2)C(=O)N2C[C@H](OCC)C[C@H]2C(=O)N(C)C2(CCC2)C(=O)N(C)[C@@H](C2CCCC2)C(=O)N(C)[C@H](C(=O)N2CCCCC2)CC(=O)N1C [PP3096, (2S,8S,12R,14S,20S,23S,27S,30S,36S,38Z)-20-cyclopentyl-32-cyclopropyl-12-ethoxy-8-[2-[3-methoxy-4-(trifluoromethyl)phenyl]ethyl]-4,16,19,22,26,35-hexamethyl-30-[(1S)-1-methylpropyl]-23-(piperidine-1-carbonyl)-27-propyl-2-(p-tolylmethyl)spiro[1,4,7,10,16,19,22,26,29,32,35-undecazatricyclo[34.5.1.0^10,14]dotetracont-38-ene-17,1′-cyclobutane]-3,6,9,15,18,21,25,28,31,34,42-undecone] | 35.8 |  |  | NRAS/KRAS (ratio of KD value with respect to GDP-bound NRAS wild-type protein to KD value with respect to KRAS) ([1]; KD ratio NRAS/KRAS, GDP-bound wild-type proteins): A (a compound having 10 or more and less than 20 is denoted as A); HRAS/KRAS (ratio of KD value with respect to GDP-bound HRAS wild-type protein to KD value with respect to KRAS) ([2]; KD ratio HRAS/KRAS, GDP-bound wild-type proteins): A (a compound having 10 or more and less than 20 is denoted as A)
CCC[C@H]1C(=O)N[C@@H]([C@@H](C)CC)C(=O)N(C)CC(=O)N(C)[C@H]2C/C=C\CCN(C2=O)[C@@H](Cc2ccc(C(F)(F)F)cc2)C(=O)N(C)CC(=O)N[C@@H](CCc2ccc(C(F)(F)F)c(OC)c2)C(=O)N2C[C@H](OCC)C[C@H]2C(=O)NC2(CC(C)(C)C2)C(=O)N(C)[C@@H](C2CCCC2)C(=O)N(C)[C@H](C(=O)N(C)CC)CC(=O)N1C [PP1676] | 5 | A (a compound having 10 or more and less than 20 is denoted as A) | A (a compound having 10 or more and less than 20 is denoted as A) | 
CCCN1C(=O)[C@@H]2CCN2C(=O)[C@H](C)N(C)C(=O)[C@H]([C@@H](C)CC)NC(=O)[C@H](CC(C)C)N(C)C(=O)C[C@@H](C(=O)N2CCOCC2)N(C)C(=O)[C@H](C2CCCC2)N(C)C(=O)C2(CCCC2)NC(=O)[C@@H]2CCCN2C(=O)[C@H](CCc2ccc(C(F)(F)F)c(Cl)c2)NC(=O)CN(C)C(=O)[C@@H]1C1CCCC1 [PP0054] ([NMeL]I[NMeA][Aze][X5][Sar][hPhe(3-Cl-4-CF3)]P[Ac5c][NMeGly(cPent)][NMeD]-Morpholide; lactam N-11) |  |  |  | NRAS/KRAS (ratio of KD for GDP-bound NRAS wild-type to KD for KRAS) ([1]; KD ratio NRAS/KRAS): C (A compound having a KD ratio of 0.1 or more and less than 3 is denoted as C); HRAS/KRAS (ratio of KD for GDP-bound HRAS wild-type to KD for KRAS) ([2]; KD ratio HRAS/KRAS): C (A compound having a KD ratio of 0.1 or more and less than 3 is denoted as C); IC50 ([3]; read-out: NCI-H441 IC50, NCI-H441 cells, 4 days, CellTiter-Glo): 82 nM
